Results reported in patent US9278131B2, “Process for lowering the viscosity of highly concentrated protein solutions” (ADOCIA, priority 2012, dated 2016).

Assays:
abatacept = biological target: T1, abatacept (Homo sapiens, UniProt P16410); assay: viscosity of highly concentrated abatacept (fusion protein) solution, cone/plate rheometer; type: physicochemical; details: Table I; abatacept 230 mg/mL, 150 mM additive, pH 7.5 ± 0.5, 21° C.
T1 construct: a fragment of a protein of interest which is the extracellular domain of the receptor of protein CTLA-4; purchased Bristol-Meyers Squibb (Orencia)
T1 sequence (P16410 with tags, fused parts or gaps limits assumed): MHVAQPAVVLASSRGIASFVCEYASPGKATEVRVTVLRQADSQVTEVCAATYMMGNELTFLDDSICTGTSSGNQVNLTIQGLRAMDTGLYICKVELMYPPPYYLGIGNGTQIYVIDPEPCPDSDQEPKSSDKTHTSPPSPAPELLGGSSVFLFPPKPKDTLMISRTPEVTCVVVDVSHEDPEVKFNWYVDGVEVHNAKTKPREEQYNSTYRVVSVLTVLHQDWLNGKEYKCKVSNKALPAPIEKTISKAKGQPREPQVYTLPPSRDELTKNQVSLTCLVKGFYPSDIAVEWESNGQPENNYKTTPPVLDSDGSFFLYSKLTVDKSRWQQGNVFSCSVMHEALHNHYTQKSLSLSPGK
Description: (§1) For this example, three solutions of monoclonal antibodies, i.e. a solution of bevacizumab (an IgG1 sold under the name Avastin® by Genentech/Hoffmann La Roche), a solution of infliximab (an IgG1/K sold under the name Remicade® by Schering-Plough), a solution of rituximab (an IgG1/K sold under the name mAbThera® by Hoffmann La Roche) and a solution of fusion protein, i.e. a solution of abatacept (IgG1-CTLA4 sold under the name Orencia® by Bristol-Meyers Squibb), were concentrated by ultrafiltration on Amicon® Ultra-15 filtration units with a cutoff threshold of 50 kDa.
(§2) The protein concentration of each concentrated solution was measured by UV spectroscopy (absorbance at 280 nm) after gravimetric dilution of the samples.
(§3) The effect of RVs 2 and 9 on the viscosity of these four highly concentrated therapeutic protein solutions was then evaluated comparatively with that of Arg and NaCl. To do this, the viscosity was measured using a cone/plate rheometer (TA Instrument, AR 2000 Ex, geometry of diameter 20 mm, cone of 0.5131°, solvent trap filled with water) at a temperature of 21° C. and in flow sweep mode with shear rates of between 5000 and 50 s^−1 (3 points per decade—steady-state sensing). […]

trastuzumab [1] = assay: viscosity of highly concentrated trastuzumab formulation, cone/plate rheometer at 25° C. (example 7); type: physicochemical; details: Table VII; trastuzumab 200 mg/mL, 150 mM additive, pH 6 ± 0.2, 25° C.
Experimental: (§4) For this example, two monoclonal antibody formulations, i.e. infliximab and trastuzumab (an IgG1/κ sold under the name Herceptin® by Genentech) were concentrated by ultrafiltration on Amicon® Ultra-50 centrifugal filtration units with a cutoff threshold of 50 kDa. The protein concentration of each concentrated solution was measured by UV spectroscopy (absorbance at 280 nm) after gravimetric dilution of the samples.
Once reconstituted, the infliximab and trastuzumab formulations were concentrated, respectively, to 212 mg/mL and 277 mg/mL.
as §3, with “and 11” for “and 9”, “these two” for “these four”, “protein formulations” for “protein solutions”, “comparatively to” for “comparatively with”, “of 25°” for “of 21°”

bevacizumab = assay: viscosity of highly concentrated bevacizumab solution, cone/plate rheometer; type: physicochemical; details: Table I; bevacizumab 250 mg/mL, 150 mM additive, pH 6.2 ± 0.2, 21° C.
Description: as §1
The protein concentration of each concentrated solution was measured by UV spectroscopy (absorbance at 280 nm) after gravimetric dilution of the samples. […]
as §3

infliximab [2] = assay: viscosity of highly concentrated infliximab solution, cone/plate rheometer at 21° C.; type: physicochemical; details: for % viscosity reduction relative to the control infliximab solution: Table V; for % viscosity reduction relative to the control infliximab solution / viscosity lowering on average, irrespective of the infliximab concentration: additive at 150 mM; for viscosity lowering on average, irrespective of the infliximab concentration: average over infliximab 80-110 mg/mL
Description: as §1, §2
(§5) The effect of RVs 2 and 9 on the viscosity of these four highly concentrated therapeutic protein solutions was then evaluated comparatively with that of Arg and NaCl.
(§6) The samples thus prepared were stored at room temperature and were analyzed using the rheometer within 24 hours of their preparation.
(§7) The pH of these formulations is the same as that of the commercial formulation of the corresponding therapeutic protein.
(§8) In this study, the highly concentrated infliximab and rituximab solutions used are the same as those which were prepared and used previously. […] The pH of these formulations is the same as that of the corresponding therapeutic protein formulation, i.e. 7.2±0.2 for infliximab, and 6.5±0.2 for rituximab.
The highly concentrated infliximab solution used is the same as that which was prepared and used previously. The “protein+RV” formulations were prepared in the presence of concentrations increasing from 0 to 200 mM of Arg or RV 9. The pH of these formulations is the same as that of the commercial infliximab formulation, i.e. 7.2±0.2.
The highly concentrated infliximab solution used is the same as that which was prepared and used previously.
The pH of these formulations is the same as that of the commercial infliximab formulation, i.e. 7.2±0.2.
The highly concentrated infliximab solution used was prepared in the same manner as that used previously. […] The pH of these formulations is the same as that of the commercial infliximab formulation, i.e. 7.2±0.2.

infliximab [3] = assay: viscosity of highly concentrated infliximab formulation, cone/plate rheometer at 25° C. (example 7); type: physicochemical; details: Table VII; infliximab 125 mg/mL, 150 mM additive, pH 7.2 ± 0.2, 25° C.
Experimental: as §4, with “samples. […]” for “samples.”
The effect of RVs 2 and 11 on the viscosity of these two highly concentrated therapeutic protein formulations was then evaluated comparatively to that of Arg and NaCl. To do this, the viscosity was measured using a cone/plate rheometer (TA Instrument, AR 2000 Ex, geometry of diameter 20 mm, cone of 0.5131°, solvent trap filled with water) at a temperature of 25° C. and in flow sweep mode with shear rates of between 5000 and 50 s^−1 (3 points per decade—steady-state sensing).
For this example, the “protein+RV” formulations were prepared by mixing a solution of RV at about 1 M obtained in example 1 with one of the concentrated infliximab and trastuzumab formulations prepared previously and the corresponding buffer so as to reach a final RV concentration of 150 mM and a final protein concentration of 125 mg/mL for infliximab and 200 mg/mL for trastuzumab. […]

rituximab = assay: viscosity of highly concentrated rituximab solution, cone/plate rheometer; type: physicochemical; details: rituximab 196 mg/mL, 150 mM additive
Description: as §1, §2
The solutions of rituximab (10 mg/mL) and of bevacizumab (25 mg/mL) were concentrated, respectively, to 320 mg/mL and 240 mg/mL.
as §5, §6, §7, §8

anti-IL5 antibody = details: tyrosine 0.004% w/v, i.e. 0.2 mM; WO 2012/141 978; cited from earlier work
trastuzumab [4] = details: phenylalanine 0.2%, i.e. 12 mM; trastuzumab 300 mg/mL; WO 2013/063 510; cited from earlier work
[5] = Table I, infliximab 107 mg/mL, 150 mM additive, pH 7.2 ± 0.2, 21° C.
[6] = Table II, infliximab 107 mg/mL, 150 mM additive, pH 7.2 ± 0.2
[7] = Table IV, infliximab 107 mg/mL, additive 25 mM, pH 7.2 ± 0.2
[8] = Table IV, infliximab 107 mg/mL, additive 50 mM, pH 7.2 ± 0.2
[9] = Table IV, infliximab 107 mg/mL, additive 100 mM, pH 7.2 ± 0.2
[10] = Table IV, infliximab 107 mg/mL, additive 150 mM, pH 7.2 ± 0.2
[11] = Table IV, infliximab 107 mg/mL, additive 200 mM, pH 7.2 ± 0.2
[12] = infliximab 80 mg/mL, pH 7.2 ± 0.2
[13] = infliximab 90 mg/mL, pH 7.2 ± 0.2
[14] = infliximab 100 mg/mL, pH 7.2 ± 0.2
[15] = infliximab 110 mg/mL, pH 7.2 ± 0.2

## Cl.N=C(N)NCCC[C@H](N)C(=O)O [Arg, L-arginine hydrochloride salt]
abatacept
  % viscosity reduction relative to the control “protein alone”: 31%
Trastuzumab [1]
  % of viscosity reduction relative to the control “protein alone”: 56%
bevacizumab
  % viscosity reduction relative to the control “protein alone”: 26%
Infliximab [2]; [5]
  % viscosity reduction relative to the control “protein alone”: 32%
Infliximab [2]; [6]
  % viscosity reduction relative to the control “protein alone”: 32%
Infliximab [2]; [7]
  % viscosity reduction relative to the control “protein alone”: 9%
Infliximab [2]; [8]
  % viscosity reduction relative to the control “protein alone”: 13%
Infliximab [2]; [9]
  % viscosity reduction relative to the control “protein alone”: 9%
Infliximab [2]; [10]
  % viscosity reduction relative to the control “protein alone”: 31%
Infliximab [2]; [11]
  % viscosity reduction relative to the control “protein alone”: 34%
Infliximab [2]; [12]
  % viscosity reduction relative to the control infliximab solution: 25%
Infliximab [2]; [13]
  % viscosity reduction relative to the control infliximab solution: 30%
Infliximab [2]; [14]
  % viscosity reduction relative to the control infliximab solution: 39%
Infliximab [2]; [15]
  % viscosity reduction relative to the control infliximab solution: 22%
Infliximab [2]
  viscosity lowering on average, irrespective of the infliximab concentration: about 29%
Infliximab [3]
  % of viscosity reduction relative to the control “protein alone”: 11%
rituximab; Table I, pH 6.5 ± 0.2, 21° C.
  % viscosity reduction relative to the control “protein alone”: 58%
rituximab; Table III, pH 6.5 ± 0.2
  % viscosity reduction relative to the control “protein alone”: 58%

## N[C@@H](Cc1ccc(O)cc1)C(=O)O [tyrosine]
anti-IL5 antibody
  increase of the viscosity of the anti-IL5 antibody solution: 44%

## C[N+](C)(C)Cc1ccccc1.[Cl-] [RV 5, benzyltrimethylammonium chloride]
Infliximab [2]; [6]
  % viscosity reduction relative to the control “protein alone”: 49%
rituximab; Table III, pH 6.5 ± 0.2
  % viscosity reduction relative to the control “protein alone”: 38%

## Cl.NCCc1ccc(O)c(O)c1 [RV 7, dopamine hydrochloride salt]
Infliximab [2]; [6]
  % viscosity reduction relative to the control “protein alone”: 38%
rituximab; Table III, pH 6.5 ± 0.2
  % viscosity reduction relative to the control “protein alone”: 39%

## [Cl-].[Na+] [NaCl, sodium chloride]
abatacept
  % viscosity reduction relative to the control “protein alone”: 7%
Trastuzumab [1]
  % of viscosity reduction relative to the control “protein alone”: 38%
bevacizumab
  % viscosity reduction relative to the control “protein alone”: ≦0%
Infliximab [2]; [5]
  % viscosity reduction relative to the control “protein alone”: ≦0%
Infliximab [2]; [6]
  % viscosity reduction relative to the control “protein alone”: ≦0%
Infliximab [3]
  % of viscosity reduction relative to the control “protein alone”: ≦0%
rituximab; Table I, pH 6.5 ± 0.2, 21° C.
  % viscosity reduction relative to the control “protein alone”: 21%
rituximab; Table III, pH 6.5 ± 0.2
  % viscosity reduction relative to the control “protein alone”: 21%

## Cl.N[C@H](CO)Cc1ccccc1 [RV 4, (S)-(−)-2-amino-3-phenyl-1-propanol hydrochloride salt]
Infliximab [2]; [6]
  % viscosity reduction relative to the control “protein alone”: 36%
rituximab; Table III, pH 6.5 ± 0.2
  % viscosity reduction relative to the control “protein alone”: 37%

## Cl.NC(=O)[C@@H](N)Cc1ccccc1 [RV 9, L-phenylalaninamide hydrochloride salt]
Infliximab [2]; [6]
  % viscosity reduction relative to the control “protein alone”: 52%
Infliximab [2]; [7]
  % viscosity reduction relative to the control “protein alone”: 19%
Infliximab [2]; [8]
  % viscosity reduction relative to the control “protein alone”: 31%
Infliximab [2]; [9]
  % viscosity reduction relative to the control “protein alone”: 41%
Infliximab [2]; [10]
  % viscosity reduction relative to the control “protein alone”: 44%
Infliximab [2]; [11]
  % viscosity reduction relative to the control “protein alone”: 56%
Infliximab [2]; [12]
  % viscosity reduction relative to the control infliximab solution: 50%
Infliximab [2]; [13]
  % viscosity reduction relative to the control infliximab solution: 52%
Infliximab [2]; [14]
  % viscosity reduction relative to the control infliximab solution: 55%
Infliximab [2]; [15]
  % viscosity reduction relative to the control infliximab solution: 49%
Infliximab [2]
  viscosity lowering on average, irrespective of the infliximab concentration: about 52%
Infliximab [2]; infliximab 107 mg/mL
  concentration sufficient to obtain a viscosity reduction equivalent to that obtained using Arg at 150 mM: 50000 µM
Infliximab [2]; infliximab 107 mg/mL, at 100 mM
  efficiency in viscosity reduction relative to Arg: about 4 times
Infliximab [2]; infliximab 107 mg/mL, at 150 mM
  efficiency in viscosity reduction relative to Arg: twice as efficient as Arg
rituximab; Table III, pH 6.5 ± 0.2
  % viscosity reduction relative to the control “protein alone”: 48%

## Cl.NCCc1ccccc1 [RV 6, 2-phenylethylamine hydrochloride salt]
Infliximab [2]; [6]
  % viscosity reduction relative to the control “protein alone”: 38%
rituximab; Table III, pH 6.5 ± 0.2
  % viscosity reduction relative to the control “protein alone”: 39%

## N[C@@H](Cc1ccccc1)C(=O)O [phenylalanine]
Trastuzumab [4]
  increase of the viscosity of a trastuzumab formulation: 83%

## Cl.NC(Cc1ccccc1)C(=O)NCCO (stereo not drawn) [RV 2, (2S-2-amino(3-phenylpropanoyl)amino)-ethanol hydrochloride salt]
Infliximab [2]; [6]
  % viscosity reduction relative to the control “protein alone”: 56%
rituximab; Table III, pH 6.5 ± 0.2
  % viscosity reduction relative to the control “protein alone”: 43%

## Cl.NCCOc1ccccc1 [RV 8, 2-phenoxyethylamine hydrochloride salt]
Infliximab [2]; [6]
  % viscosity reduction relative to the control “protein alone”: 46%
rituximab; Table III, pH 6.5 ± 0.2
  % viscosity reduction relative to the control “protein alone”: 52%
